Entries after “also recorded” stand apart in the source; their conditions may differ. Like-named read-outs stand apart in the source and are kept apart here.
Columns and labels:
Assay type in all cases: physicochemical
[1] = Stability of 7-acetoxy quadricyclane 1 in PBS (NMR); details: room temperature, more than 2 months (NMR taken 2.5 months after preparation, CD3CN/deuterated PBS)
Description: 7-acetoxy quadricyclane (1, 2 mg) was dissolved in 0.4 mL of CD3CN. To this solution, 0.4 mL of deuterated PBS was added. The NMR spectrum above was taken 2.5 months after the described solution was prepared.

[2] = Stability of quadricyclane 1 to cysteine and other biological nucleophiles, BSA and cell culture media
Description: 7-acetoxy quadricyclane (1, 2 mg) was dissolved in 0.4 mL of CD3CN. To this solution, 0.4 mL of deuterated PBS and 3 mg of cysteine were added. The NMR spectrum above was taken 2.5 months after the described solution was prepared.

[3] = Photo-lability of complex 3 in ambient light (NMR, UV/Vis/NIR); details: CDCl3 solution in an NMR tube
Description: Complex 3 (2.2 mg) was dissolved in CDCl3 (˜0.75 mL) and placed in an NMR tube on the bench continually exposed to ambient light. NMR spectra were periodically obtained. The asterisks indicate the chemical shifts for 7-acetoxy norbornadiene (4). At the 36 h time point, there is a 1:1.1 ratio of 3:4 as judged by integration of the olefin peaks.
Using an NMR assay degradation of 3 over the first few hours is not evident. However, using UV/Vis/NIR spectroscopy, which has greater sensitivity than NMR, the formation of 2 from 3 is evident at early timepoints. A solution of 3 was prepared in CH3CN and left in ambient light. A UV/Vis/NIR spectrum was obtained every 15 min. The NIR absorption band at 855 nm characteristic of 2 is growing in, while the small hump centered at ˜400 nm characteristic of […] is decreasing. The absorption band at 350 nm is also increasing in intensity.

[4] = Prevention of photo-degradation of complex 3 by diethyldithiocarbamate (UV/Vis/NIR); details: 200 μM 3, 1.25 mM 5, 3:1 CH3CN/H2O, 20 h ambient light
Description: A solution containing 200 μM 3 and 0 (red) or 1.25 (green) mM 5 in 3:1 CH3CN/H2O was prepared and left in ambient light continually. A. UV/Vis/NIR spectra of the described solutions taken before being exposed to light. B. UV/Vis/NIR spectra of the described solutions taken after 20 h of exposure to light. The red line contains little absorbance due to the low solubility of 2 in acetonitrile. If 2 is reduced to the anionic state by cysteine (1.25 mM, blue line) solubility in acetonitrile is improved and evidence of photodegradation can be seen. The diethyldithiocarbamate treated sample remains unaltered after exposure to light indicating no photodegradation occurred.

[5] = Solubility and reactivity of bis(dithiobenzil)nickel(II) 2

With CC(=O)OC1C2C3C2C2C1C32 (stereo not drawn) [Compound 1, 7-acetoxy Quadricyclane] the “Stability in phosphate buffered saline (PBS, pH 7.4)” value [1] was “stable; also recorded: no degradation observed”, the “Stability in the presence of bovine serum albumin (BSA) and cell culture media” value ([2]; conditions emulating metabolic labeling experiments) was “stable” and the “Reactivity with sugars, oxidants and free amino acids, most notably cysteine” value ([2]; cysteine: CD3CN/deuterated PBS, NMR after 2.5 months) was “stable; also recorded: unreactive”.
In the case of CC(=O)OC1C2C=CC1C1C2[S]2=[Ni]3(=[S]1C(c1ccccc1)=C(c1ccccc1)[S]3)[S]C(c1ccccc1)=C2c1ccccc1 (stereo not drawn) [Complex 3], the half-life at 2.9 mg/mL ([3]; NMR, read-out: Calculated half-life of photo-degradation based on all integration data (converted)) is reported as 34.8 h and the half-life at 2.9 mg/mL ([3]; read-out: Half-life of the light-induced reversion (converted)) is reported as about 35 h.
In the case of CCN(CC)C(=S)S [Compound 5, diethyldithiocarbamate], the “Effect on photo-degradation of complex 3” value [4] is reported as “prevented”.
In the case of S=C(C(=S)c1ccccc1)c1ccccc1.S=C(C(=S)c1ccccc1)c1ccccc1.[Ni] [Compound 2, Bis(dithiobenzil)nickel(II)], the Solubility in acetonitrile ([5]; acetonitrile) is reported as “low”, the “Reactivity with a variety of nucleophiles” value ([5]; in dichloromethane) is reported as “unreactive” and the “Solubility in polar solvents” value ([5]; polar solvents) is reported as “limited”.
